Each structure is given as a SMILES string. Bounds are passed on as bounds.

Consider eight compounds from patent US20230120205A1, “NERVE CELL DEGENERATION INHIBITOR” (KYOTO UNIVERSITY, priority 2020, published 2023).

Series [1] deals with ALS7 (C9orf72) cell-derived motor neurons. In words: Cytotoxicity: intracellular ATP level (CellTiter-Glo). The series is classed as cell-based, human. As to the method:
In order to examine the cytotoxicity of the test compound, the intracellular ATP level was measured.
ALS7 (C9orf72) cells were seeded on an assay plate in the same procedure as in Experimental Example 1. Four days after seeding, the assay medium containing no Y-27632 was added to the plate, and the cells were cultured until seven days after seeding, and the assay medium (Retinoic Acid, Doxycycline, SAG, Y-27632-free) containing the test compound at a predetermined concentration was added to the plate by medium exchange. 24 hr or 48 hr after addition of the test compound, the medium was removed, and CellTiter-Glo Luminescent Cell Viability Assay (Promega, G7570) was performed.
The method for detecting the cytotoxicity of the test compound is as follows.
(§1) As a negative control, the cells cultured in the assay medium supplemented with DMSO instead of the test compound were used.
The degree of the effect on the intracellular ATP level in the test compound-treated cells was defined as the ATP level of the test compound compared with the negative control, which was calculated by the following formula.
ATP level of the test compound compared to the negative control=X/C×100
X: ATP level in the test compound group, C: ATP level in the DMSO group
When the intracellular ATP level was less than 0.5 times or more than 1.5 times the intracellular ATP level in the negative control, it was judged to be cytotoxic.
On the technique in general: Cellular ATP, detected with luciferase, serves as a proxy for viable cell number.

For the next series, the system named is RAN translation. Description: RAN translation inhibitory activity (poly-GP level by electrochemiluminescence). The class given is cell-based, human. The following applies: two days after addition, poly-GP level vs DMSO; for inhibition at 1 µM / inhibition at 3 µM / inhibition at 10 µM: Homo sapiens, 48 h. As for the experimental part:
Next, the effect of the compound used in the present invention on RAN translation was examined. Among the DPRs generated by RAN translation, the poly-GP level was measured by an electrochemiluminescence system (Meso Scale Diagnostics).
ALS7 (C9orf72) cells were seeded on an assay plate in the same procedure as in Experimental Example 1. Four days after seeding, the assay medium containing no Y-27632 was added to the plate, and the cells were cultured until seven days after seeding, and the assay medium (Retinoic Acid, Doxycycline, SAG, Y-27632-free) containing the test compound at a predetermined concentration was added to the plate by medium exchange. Two days after addition of the test compound, the medium was removed, and the cells were lysed in an urea buffer consisting of 8M Urea (Wako, 219-00175), 4% CHAPS (Dojindo, 349-04722) and 30 mM Tris-HCl (pH 8.0, Nippon Gene, 312-90061). The cell lysate was added to a multi-array 384 well plate (Meso Scale Diagnostics, L21XB-4), and the plate was agitated at 700 rpm with a plate shaker (Azwan, DM-301) at room temperature, and then allowed to stand overnight at 4° C. The cell lysate was removed, a blocking buffer consisting of 5% Blocker A (Meso Scale Diagnostics, R93AA-1) and 1×TBS-T {TBS (Bio-Rad, 170-6435) containing 0.05% Tween-20 (Bio-Rad, 170-6531)} was added to the plate, and the plate was agitated at 700 rpm with a plate shaker for 1 hr at room temperature, and then washed three times with a wash buffer consisting of 0.05% Tween-20 and PBS (Wako, 162-18547). C9RANT antibody (Novus Biologicals, NBP2-25018) diluted 10,000-fold with 1×TBS-T containing 1% Blocker A was added to the plate, and the plate was agitated at 700 rpm with a plate shaker for 2 hr at 4° C., and then allowed to stand overnight at 4° C. After washing three times with the wash buffer, SULFO-TAG Goat Anti-Rabbit Antibody (Meso Scale Diagnostics, R32AB-1) diluted 500-fold with 1×TBS-T containing 1% Blocker A was added to the plate, and the plate was agitated at 700 rpm with a plate shaker for 2 hr at room temperature. After washing three times with the wash buffer, 2×MSD Read Buffer T with Surfactant (Meso Scale Diagnostics, R92TC-1) was added to the plate, and the signal derived from the C9RANT antibody was measured by MESO SECTOR S600 (Meso Scale Diagnostics).
The method for detecting the activity of the test compound is as follows.
as §1
RAN translation inhibitory activity of the test compound=100−X/C×100
X: poly-GP level in the test compound group, C: poly-GP level in the DMSO group

Consider `COc1cc(F)ccc1-c1ncnc(Nc2cccc(CS(C)(=N)=O)c2)n1` (centres unmarked) [Compound No. 1, 4-(4-fluoro-2-methoxyphenyl)-N-{3-[(S-methanesulfonimidoyl)methyl]phenyl}-1,3,5-triazin-2-amine], for which the “ATP level % compared to negative control” value in series [1] (After 24 hr, 1 μM) was 92%; in series [1] (After 24 hr, 3 μM), 107%; in series [1] (After 24 hr, 10 μM), 134%; in series [1] (After 48 hr, 1 μM) it was 91%; in series [1] (After 48 hr, 3 μM), 89%; in series [1] (After 48 hr, 10 μM), 122%. Besides, the inhibition (in general, the relative decrease from the control value, in per cent) at 1 µM in the series on RAN translation (1 μM test compound) amounted to 1%. The inhibition at 3 µM in the series with RAN translation (3 μM test compound) was found to be 19%. Besides, in the series on RAN translation (10 μM test compound), 10 µM produced 18% inhibition.
As to `COc1ccccc1-c1ncnc(Nc2cccc(CS(N)(=O)=O)c2)n1` [Compound No. 2, 1-(3-{[4-(2-methoxyphenyl)-1,3,5-triazin-2-yl]amino}phenyl)methanesulfonamide], the “ATP level % compared to negative control” value amounted to 98% in series [1] (After 24 hr, 1 μM); 89% in series [1] (After 24 hr, 3 μM); 101% in series [1] (After 24 hr, 10 μM); 99% in series [1] (After 48 hr, 1 μM); 74% in series [1] (After 48 hr, 3 μM); 53% in series [1] (After 48 hr, 10 μM). In the series on RAN translation (1 μM test compound), this compound had an inhibition at 1 µM greater than 1%. This compound also showed an inhibition at 3 µM in the series with RAN translation (3 μM test compound) of 6%. In the series on RAN translation (10 μM test compound), this compound gave an inhibition at 10 µM of 15%.
On to `COc1cc(Cl)ccc1-c1ncnc(Nc2cccc(CS(N)(=O)=O)c2)n1` [Compound No. 3, 1-(3-{[4-(4-chloro-2-methoxyphenyl)-1,3,5-triazin-2-yl]amino}phenyl)methanesulfonamide], for which the “ATP level % compared to negative control” value was 104% in series [1] (After 24 hr, 1 μM); 97% in series [1] (After 24 hr, 3 μM); 106% in series [1] (After 24 hr, 10 μM); 105% in series [1] (After 48 hr, 1 μM); 87% in series [1] (After 48 hr, 3 μM); 69% in series [1] (After 48 hr, 10 μM). Besides, the inhibition at 1 µM in the series on RAN translation (1 μM test compound) was greater than 1%. The compound also registered an inhibition at 3 µM in the series on RAN translation (3 μM test compound) of 1%. This compound registered an inhibition at 10 µM in the series with RAN translation (10 μM test compound) of 4%.
For the compound `NS(=O)(=O)Cc1cccc(Nc2ncnc(-c3ccccc3OCc3ccccc3)n2)c1.O=C(O)C(F)(F)F` [Compound No. 4a, 1-[3-({4-[2-(benzyloxy)phenyl]-1,3,5-triazin-2-yl}amino)phenyl]methanesulfonamide trifluoroacetate], the “ATP level % compared to negative control” value in series [1] (After 24 hr, 1 μM) stood at 113%; in series [1] (After 24 hr, 3 μM), 128%; in series [1] (After 24 hr, 10 μM) it was 140%; in series [1] (After 48 hr, 1 μM), 80%; in series [1] (After 48 hr, 3 μM) it was 101%; in series [1] (After 48 hr, 10 μM), 115%. Besides, the “RAN translation inhibitory activity %” value turned out to be 5% in the series on RAN translation (1 μM test compound) and 3% in the series with RAN translation (10 μM test compound). In the series with RAN translation (3 μM test compound), this compound had an inhibition at 3 µM of 11%.
Regarding `NS(=O)(=O)Cc1cccc(Nc2ncnc(-c3ccccc3OCc3ccccc3)n2)c1` [Compound No. 4b, 1-[3-({4-[2-(benzyloxy)phenyl]-1,3,5-triazin-2-yl}amino)phenyl]methanesulfonamide], the “ATP level % compared to negative control” value in series [1] (After 24 hr, 1 μM) was 105%; in series [1] (After 24 hr, 3 μM), 121%; in series [1] (After 24 hr, 10 μM), 134%; in series [1] (After 48 hr, 1 μM), 73%; in series [1] (After 48 hr, 3 μM), 97%; in series [1] (After 48 hr, 10 μM), 102%. The “RAN translation inhibitory activity %” value in the series with RAN translation (1 μM test compound) came out at 11%; with RAN translation (3 μM test compound), 17%; with RAN translation (10 μM test compound), 17%.
Regarding `CS(=N)(=O)Cc1cccc(Nc2ncnc(-c3ccccc3OCc3ccc(Cl)c(Cl)c3)n2)c1` (centres unmarked) [Compound No. 5, 4-{2-[(3,4-dichlorophenyl)methoxy]phenyl}-N-{3-[(S-methanesulfonimidoyl)methyl]phenyl}-1,3,5-triazin-2-amine], the “ATP level % compared to negative control” value is given as 98% in series [1] (After 24 hr, 1 μM); 118% in series [1] (After 24 hr, 3 μM); 131% in series [1] (After 24 hr, 10 μM); 83% in series [1] (After 48 hr, 1 μM); 94% in series [1] (After 48 hr, 3 μM); 108% in series [1] (After 48 hr, 10 μM). In the series on RAN translation (1 μM test compound), this compound came in with an inhibition at 1 µM of 19%. In the series with RAN translation (3 μM test compound), this compound registered an inhibition at 3 µM of 16%. In the series with RAN translation (10 μM test compound), testing at 10 µM gave an inhibition of 21%.
For `CCOC(=O)N=S(C)(=O)Cc1cccc(Nc2ncnc(-c3cccc4c3OCCO4)n2)c1` (centres unmarked) [Compound No. 6, ethyl {[(3-{[4-(2,3-dihydro-1,4-benzodioxin-5-yl)-1,3,5-triazin-2-yl]amino}phenyl)methyl](methyl)oxo-λ^6-sulfanylidene}carbamate], the “ATP level % compared to negative control” value is reported as 89% in series [1] (After 24 hr, 1 μM); 107% in series [1] (After 24 hr, 3 μM); 130% in series [1] (After 24 hr, 10 μM); 77% in series [1] (After 48 hr, 1 μM); 71% in series [1] (After 48 hr, 3 μM); 124% in series [1] (After 48 hr, 10 μM). The compound also gave an inhibition at 1 µM in the series on RAN translation (1 μM test compound) of 16%. Also, the inhibition at 10 µM with RAN translation (10 μM test compound) is 21%.
As for `CCOC(=O)N=S(C)(=O)Cc1cccc(Nc2ncnc(-c3cccc4c3OCC4)n2)c1` (centres unmarked) [Compound No. 7, ethyl {[(3-{[4-(2,3-dihydro-1-benzofuran-7-yl)-1,3,5-triazin-2-yl]amino}phenyl)methyl](methyl)oxo-λ^6-sulfanylidene}carbamate], the “ATP level % compared to negative control” value came out at 89% in series [1] (After 24 hr, 1 μM); 105% in series [1] (After 24 hr, 3 μM); 126% in series [1] (After 24 hr, 10 μM); 86% in series [1] (After 48 hr, 1 μM); 87% in series [1] (After 48 hr, 3 μM); 112% in series [1] (After 48 hr, 10 μM). In the series on RAN translation (1 μM test compound), this compound returned an inhibition at 1 µM of 4%. For the same compound, 3 µM produced 19% inhibition with RAN translation (3 μM test compound). The compound further displayed an inhibition at 10 µM in the series on RAN translation (10 μM test compound) of 17%.
